# Experimental data from patent publication US9458137B2, “Substituted indol-5-ol derivatives and their therapeutical applications” (NantBioScience, Inc., priority 2012, dated 2016).
# Tests used:
# Assay in all cases: Kinase panel activity
# Assay type in all cases: biochemical
# Conditions in all cases: 0.1 μM, ATP Km
# [1] = biological target: T1, EphA4(h) (Homo sapiens, UniProt P54764)
# T1 construct: purchased Millipore (KinaseProfiler service)
# Description: (§1) The effect of NTW-3475 on kinase activity was tested for a wide range of kinases and is shown in Table 2: Summary Sheet, Activity % ATP Concentration: Km
# [2] = biological target: GRK5(h) (Homo sapiens, UniProt P34947)
# Description: as §1
# [3] = biological target: T2, Tie2(h) (Homo sapiens, UniProt Q02763)
# T2 construct: purchased Millipore (KinaseProfiler service)
# Description: as §1
# [4] = biological target: Ab1(h) (Homo sapiens, UniProt P00519)
# Description: as §1
# [5] = biological target: T3, ErbB4(h) (Homo sapiens, UniProt Q15303)
# T3 construct: purchased Millipore (KinaseProfiler service)
# Description: as §1
# [6] = biological target: 1tk(h) (Homo sapiens, UniProt Q08881)
# Description: as §1
# [7] = biological target: T4, Met(Y1248D)(h) (Homo sapiens, UniProt P08581, Y1230D)
# T4 construct: purchased Millipore (KinaseProfiler service)
# Description: as §1
# [8] = biological target: VRK2(h) (Homo sapiens, UniProt Q86Y07)
# Description: as §1
# [9] = biological target: ALK4(h) (Homo sapiens, UniProt P36896)
# Description: as §1
# [10] = biological target: Pim-2(h) (Homo sapiens, UniProt Q9P1W9)
# Description: as §1
# [11] = biological target: T5, Rsk3(h) (Homo sapiens, UniProt Q15349)
# T5 construct: purchased Millipore (KinaseProfiler service)
# Description: as §1
# [12] = biological target: PDGFRα(V561D)(h) (Homo sapiens, UniProt P16234, V561D)
# Description: as §1
# [13] = biological target: T6, Mnk2(h) (Homo sapiens, UniProt Q9HBH9)
# T6 construct: purchased Millipore (KinaseProfiler service)
# Description: as §1
# [14] = biological target: CaMKIIγ(h) (Homo sapiens, UniProt Q13555)
# Description: as §1
# [15] = biological target: cKit(D816H)(h) (Homo sapiens, UniProt P10721, D816H)
# Description: as §1
# [16] = biological target: Hck(h) (Homo sapiens, UniProt P08631)
# Description: as §1
# [17] = biological target: BrSK1(h) (Homo sapiens, UniProt Q8TDC3)
# Description: as §1
# [18] = biological target: CDK2/cyclinE(h) (Homo sapiens, UniProt P24941)
# Description: as §1
# [19] = biological target: CHK2(h) (Homo sapiens, UniProt O96017)
# Description: as §1
# [20] = biological target: PEK(h) (Homo sapiens, UniProt Q9NZJ5)
# Description: as §1
# [21] = biological target: T7, ROCK-I(h) (Homo sapiens, UniProt Q13464)
# T7 construct: purchased Millipore (KinaseProfiler service)
# Description: as §1
# [22] = biological target: CaMKIV(h) (Homo sapiens, UniProt Q16566)
# Description: as §1
# [23] = biological target: DAPK1(h) (Homo sapiens, UniProt P53355)
# Description: as §1
# [24] = biological target: T8, SGK2(h) (Homo sapiens, UniProt Q9HBY8)
# T8 construct: purchased Millipore (KinaseProfiler service)
# Description: as §1
# [25] = biological target: T9, FGFR1(V561M)(h) (Homo sapiens, UniProt P11362, V561M)
# T9 construct: purchased Millipore (KinaseProfiler service)
# Description: as §1
# [26] = biological target: T10, EphA5(h) (Homo sapiens, UniProt P54756)
# T10 construct: purchased Millipore (KinaseProfiler service)
# Description: as §1
# [27] = biological target: PKBγ(h) (Homo sapiens, UniProt Q9Y243)
# Description: as §1
# [28] = biological target: cKit(h) (Homo sapiens, UniProt P10721)
# Description: as §1
# [29] = biological target: PAK2(h) (Homo sapiens, UniProt Q13177)
# Description: as §1
# [30] = biological target: T11, TAO3(h) (Homo sapiens, UniProt Q9H2K8)
# T11 construct: purchased Millipore (KinaseProfiler service)
# Description: as §1
# [31] = biological target: PDGFRβ(h) (Homo sapiens, UniProt P09619)
# Description: as §1
# [32] = biological target: T12, Ros(h) (Homo sapiens, UniProt P08922)
# T12 construct: purchased Millipore (KinaseProfiler service)
# Description: as §1
# [33] = biological target: T13, MLK1(h) (Homo sapiens, UniProt P80192)
# T13 construct: purchased Millipore (KinaseProfiler service)
# Description: as §1
# [34] = biological target: PKD2(h) (Homo sapiens, UniProt Q9BZL6)
# Description: as §1
# [35] = biological target: ULK3(h) (Homo sapiens, UniProt Q6PHR2)
# Description: as §1
# [36] = biological target: MST1(h) (Homo sapiens, UniProt Q13043)
# Description: as §1
# [37] = biological target: Arg(m) (Mus musculus, UniProt Q4JIM5)
# Description: as §1
# [38] = biological target: CaMKIIβ(h) (Homo sapiens, UniProt Q13554)
# Description: as §1
# [39] = biological target: HIPK1(h) (Homo sapiens, UniProt Q86Z02)
# Description: as §1
# [40] = biological target: BrSK2(h) (Homo sapiens, UniProt Q8IWQ3)
# Description: as §1
# T11 sequence (Q9H2K8 whole entry): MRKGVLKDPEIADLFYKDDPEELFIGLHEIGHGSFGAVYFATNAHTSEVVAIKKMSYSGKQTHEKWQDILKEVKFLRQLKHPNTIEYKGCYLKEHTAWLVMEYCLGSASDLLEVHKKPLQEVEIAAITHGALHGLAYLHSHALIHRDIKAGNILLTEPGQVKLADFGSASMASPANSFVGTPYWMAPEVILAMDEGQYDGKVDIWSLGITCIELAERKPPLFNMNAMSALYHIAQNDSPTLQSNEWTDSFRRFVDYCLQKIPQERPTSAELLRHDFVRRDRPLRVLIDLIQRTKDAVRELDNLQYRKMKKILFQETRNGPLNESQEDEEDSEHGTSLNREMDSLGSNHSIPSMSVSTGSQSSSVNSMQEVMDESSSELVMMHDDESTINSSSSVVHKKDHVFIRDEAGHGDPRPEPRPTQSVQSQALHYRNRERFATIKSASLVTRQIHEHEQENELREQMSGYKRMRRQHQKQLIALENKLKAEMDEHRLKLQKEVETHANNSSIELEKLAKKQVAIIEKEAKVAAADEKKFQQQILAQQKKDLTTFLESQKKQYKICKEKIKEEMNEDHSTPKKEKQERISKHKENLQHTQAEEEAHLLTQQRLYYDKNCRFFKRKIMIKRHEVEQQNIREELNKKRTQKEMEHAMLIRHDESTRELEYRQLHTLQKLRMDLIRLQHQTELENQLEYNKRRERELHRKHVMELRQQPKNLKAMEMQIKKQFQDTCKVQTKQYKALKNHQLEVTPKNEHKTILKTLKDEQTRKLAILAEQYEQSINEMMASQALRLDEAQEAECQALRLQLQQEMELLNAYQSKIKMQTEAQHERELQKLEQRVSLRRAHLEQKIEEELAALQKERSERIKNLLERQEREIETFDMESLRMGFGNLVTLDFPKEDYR
# Sequence of BrSK1(h) (Q8TDC3 whole entry): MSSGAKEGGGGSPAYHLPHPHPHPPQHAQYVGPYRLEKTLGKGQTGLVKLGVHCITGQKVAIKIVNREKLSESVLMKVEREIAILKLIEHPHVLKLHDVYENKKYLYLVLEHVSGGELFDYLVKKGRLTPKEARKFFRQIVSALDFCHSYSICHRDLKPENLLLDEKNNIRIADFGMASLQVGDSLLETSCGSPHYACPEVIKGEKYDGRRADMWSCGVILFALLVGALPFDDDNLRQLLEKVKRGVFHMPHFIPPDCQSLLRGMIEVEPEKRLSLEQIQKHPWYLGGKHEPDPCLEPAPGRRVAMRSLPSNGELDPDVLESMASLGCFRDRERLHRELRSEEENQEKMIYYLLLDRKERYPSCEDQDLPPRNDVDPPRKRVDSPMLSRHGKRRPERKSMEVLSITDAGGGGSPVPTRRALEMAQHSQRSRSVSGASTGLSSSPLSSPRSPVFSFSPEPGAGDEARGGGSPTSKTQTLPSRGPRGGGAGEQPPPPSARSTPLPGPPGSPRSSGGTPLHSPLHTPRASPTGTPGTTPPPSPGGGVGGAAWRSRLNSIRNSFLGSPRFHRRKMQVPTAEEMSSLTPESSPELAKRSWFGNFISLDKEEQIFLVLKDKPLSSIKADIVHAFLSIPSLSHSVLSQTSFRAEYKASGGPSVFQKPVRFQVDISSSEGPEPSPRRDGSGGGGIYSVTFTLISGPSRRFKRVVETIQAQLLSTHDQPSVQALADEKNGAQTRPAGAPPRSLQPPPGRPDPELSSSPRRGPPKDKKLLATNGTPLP
# Sequence of 1tk(h) (Q08881 whole entry): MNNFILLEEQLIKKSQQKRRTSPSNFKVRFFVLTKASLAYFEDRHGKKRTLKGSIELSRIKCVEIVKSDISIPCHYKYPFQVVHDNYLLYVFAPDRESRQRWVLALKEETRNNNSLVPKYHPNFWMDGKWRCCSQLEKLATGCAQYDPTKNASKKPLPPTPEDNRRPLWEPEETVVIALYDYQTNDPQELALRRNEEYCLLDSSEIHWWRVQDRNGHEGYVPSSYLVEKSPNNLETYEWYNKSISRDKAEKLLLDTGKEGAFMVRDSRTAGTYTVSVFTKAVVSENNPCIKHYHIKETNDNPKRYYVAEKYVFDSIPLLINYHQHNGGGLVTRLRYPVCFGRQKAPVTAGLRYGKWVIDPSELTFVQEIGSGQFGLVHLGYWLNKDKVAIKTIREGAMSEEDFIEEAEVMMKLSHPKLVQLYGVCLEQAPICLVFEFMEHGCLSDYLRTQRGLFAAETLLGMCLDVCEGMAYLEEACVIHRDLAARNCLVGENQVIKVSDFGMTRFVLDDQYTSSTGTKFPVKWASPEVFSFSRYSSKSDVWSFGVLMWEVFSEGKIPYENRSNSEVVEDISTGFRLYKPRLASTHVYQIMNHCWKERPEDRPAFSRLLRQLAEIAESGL
# Sequence of cKit(D816H)(h) (P10721 26-976 D816H): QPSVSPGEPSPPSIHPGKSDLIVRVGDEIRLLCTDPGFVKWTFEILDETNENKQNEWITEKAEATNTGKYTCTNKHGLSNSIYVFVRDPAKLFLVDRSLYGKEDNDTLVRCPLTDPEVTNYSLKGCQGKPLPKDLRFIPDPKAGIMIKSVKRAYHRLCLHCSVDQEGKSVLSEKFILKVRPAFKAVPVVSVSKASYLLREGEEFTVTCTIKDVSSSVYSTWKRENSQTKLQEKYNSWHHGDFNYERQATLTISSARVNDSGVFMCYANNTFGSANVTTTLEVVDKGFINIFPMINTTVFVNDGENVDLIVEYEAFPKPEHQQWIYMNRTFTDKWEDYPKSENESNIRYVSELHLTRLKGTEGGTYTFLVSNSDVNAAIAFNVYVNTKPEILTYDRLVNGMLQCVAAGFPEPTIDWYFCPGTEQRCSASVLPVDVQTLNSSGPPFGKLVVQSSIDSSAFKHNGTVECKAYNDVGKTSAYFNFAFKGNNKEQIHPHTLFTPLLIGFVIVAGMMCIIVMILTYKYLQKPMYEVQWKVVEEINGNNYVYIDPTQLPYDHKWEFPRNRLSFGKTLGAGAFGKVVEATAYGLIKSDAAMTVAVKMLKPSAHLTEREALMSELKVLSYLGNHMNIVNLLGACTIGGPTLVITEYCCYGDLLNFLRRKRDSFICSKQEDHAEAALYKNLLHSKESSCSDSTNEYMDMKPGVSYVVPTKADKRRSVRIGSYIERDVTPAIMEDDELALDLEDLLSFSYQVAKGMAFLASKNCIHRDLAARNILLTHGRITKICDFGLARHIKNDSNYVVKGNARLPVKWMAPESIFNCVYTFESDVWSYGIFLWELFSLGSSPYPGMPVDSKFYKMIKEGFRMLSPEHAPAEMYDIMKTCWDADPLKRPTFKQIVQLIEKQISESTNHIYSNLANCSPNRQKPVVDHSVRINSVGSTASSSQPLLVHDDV
# Sequence of PEK(h) (Q9NZJ5 30-1116): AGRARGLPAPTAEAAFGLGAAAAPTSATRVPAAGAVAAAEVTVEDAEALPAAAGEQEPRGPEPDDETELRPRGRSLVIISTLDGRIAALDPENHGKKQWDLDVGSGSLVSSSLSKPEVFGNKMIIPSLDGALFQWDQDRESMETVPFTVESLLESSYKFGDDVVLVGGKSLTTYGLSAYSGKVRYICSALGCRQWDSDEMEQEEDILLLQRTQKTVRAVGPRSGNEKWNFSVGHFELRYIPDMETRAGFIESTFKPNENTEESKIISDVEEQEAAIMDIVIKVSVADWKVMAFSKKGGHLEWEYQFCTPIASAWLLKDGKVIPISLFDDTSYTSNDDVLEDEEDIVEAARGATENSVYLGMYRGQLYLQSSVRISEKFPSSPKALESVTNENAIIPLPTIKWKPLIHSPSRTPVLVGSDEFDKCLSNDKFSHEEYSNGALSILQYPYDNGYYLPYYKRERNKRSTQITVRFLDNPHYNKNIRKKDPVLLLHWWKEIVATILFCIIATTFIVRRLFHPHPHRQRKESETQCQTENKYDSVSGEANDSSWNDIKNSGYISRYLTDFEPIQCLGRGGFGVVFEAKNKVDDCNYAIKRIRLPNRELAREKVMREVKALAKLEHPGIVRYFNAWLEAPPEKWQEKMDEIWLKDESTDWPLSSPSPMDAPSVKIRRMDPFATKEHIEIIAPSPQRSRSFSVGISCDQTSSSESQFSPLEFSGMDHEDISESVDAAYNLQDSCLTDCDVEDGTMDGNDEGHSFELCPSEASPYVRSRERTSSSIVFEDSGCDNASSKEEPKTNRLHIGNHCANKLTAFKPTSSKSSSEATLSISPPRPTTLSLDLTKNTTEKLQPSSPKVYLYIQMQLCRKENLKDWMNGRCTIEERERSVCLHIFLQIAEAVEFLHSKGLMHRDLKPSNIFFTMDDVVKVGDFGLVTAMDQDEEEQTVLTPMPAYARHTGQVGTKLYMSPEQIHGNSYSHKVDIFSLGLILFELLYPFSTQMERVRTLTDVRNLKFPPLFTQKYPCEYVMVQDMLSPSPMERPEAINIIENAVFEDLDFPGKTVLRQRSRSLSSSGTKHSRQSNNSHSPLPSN
# Sequence of MST1(h) (Q13043 whole entry): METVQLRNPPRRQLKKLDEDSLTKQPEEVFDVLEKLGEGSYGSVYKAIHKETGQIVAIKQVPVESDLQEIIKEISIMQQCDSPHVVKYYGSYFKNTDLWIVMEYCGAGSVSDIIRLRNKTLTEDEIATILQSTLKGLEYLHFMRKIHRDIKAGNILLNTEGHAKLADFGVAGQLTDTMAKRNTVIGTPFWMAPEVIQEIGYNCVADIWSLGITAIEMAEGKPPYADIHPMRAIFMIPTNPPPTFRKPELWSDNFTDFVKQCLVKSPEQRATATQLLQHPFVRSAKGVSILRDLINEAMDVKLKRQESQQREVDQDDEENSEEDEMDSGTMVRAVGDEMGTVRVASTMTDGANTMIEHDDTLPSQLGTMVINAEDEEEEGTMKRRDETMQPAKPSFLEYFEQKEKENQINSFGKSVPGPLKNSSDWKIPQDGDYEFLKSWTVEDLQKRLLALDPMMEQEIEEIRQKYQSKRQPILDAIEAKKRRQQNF
# Sequence of cKit(h) (P10721 26-976): as the sequence (P10721 26-976 D816H) above, with H791D counted along it
compound,measurement,setting,value
Cc1cc2c(F)c(Oc3nc(Nc4cc(C5CC5)[nH]n4)cc(N4CCN(C)CC4)n3)cc(F)c2[nH]1 [NTW-3475],Activity %,[1],23%
same,Activity %,[2],100%
same,Activity %,[3],0%
same,Activity %,[4],−9%
same,Activity %,[5],90%
same,Activity %,[6],29%
same,Activity %,[7],21%
same,Activity %,[8],99%
same,Activity %,[9],28%
same,Activity %,[10],96%
same,Activity %,[11],25%
same,Activity %,[12],8%
same,Activity %,[13],92%
same,Activity %,[14],87%
same,Activity %,[15],9%
same,Activity %,[16],18%
same,Activity %,[17],53%
same,Activity %,[18],89%
same,Activity %,[19],95%
same,Activity %,[20],103%
same,Activity %,[21],93%
same,Activity %,[22],106%
same,Activity %,[23],88%
same,Activity %,[24],107%
same,Activity %,[25],−4%
same,Activity %,[26],122%
same,Activity %,[27],106%
same,Activity %,[28],84%
same,Activity %,[29],65%
same,Activity %,[30],16%
same,Activity %,[31],89%
same,Activity %,[32],46%
same,Activity %,[33],7%
same,Activity %,[34],94%
same,Activity %,[35],11%
same,Activity %,[36],24%
same,Activity %,[37],−2%
same,Activity %,[38],99%
same,Activity %,[39],91%
same,Activity %,[40],44%
